According to US20250144067A1, “PERSONALIZED STARVATION THERAPY FOR CANCER” (Faeth Therapeutics, Inc., priority 2021, published 2025):
Counter-ions that a name gives are not always drawn. Like-named read-outs stand apart in the source and are kept apart here.

Experiments:
[1] = test system: NCI-H292 lung cancer cells; experiment: FDA drug screening, complete media vs cholesterol-free media without statin (TABLE 1); assay type: cell-based, human
[2] = test system: NCI-H292 lung cancer cells; experiment: FDA drug screening, complete media vs cholesterol-free media with simvastatin (TABLE 2); assay type: cell-based, human
[3] = NCI-H292 cells, cholesterol-free media without statin
[4] = complete vs cholesterol-free media, greater than 0 enhanced anti-cancer activity, about 0 neutral, below 0 antagonists
[5] = NCI-H292 cells, cholesterol-free media with simvastatin 0.04 μM, cell growth value in FDA drug screen
[6] = NCI-H292 cells, complete media, cell growth value in FDA drug screen
[7] = complete media minus cholesterol-free media + simvastatin, >0 enhanced anti-cancer activity, about 0 neutral, <0 antagonist
[8] = Complete minus Cholesterol-free, greater than 0 enhanced anti-cancer activity, about 0 neutral, below 0 antagonists
[9] = NCI-H292 cells in cholesterol-free media without statin
[10] = NCI-H292 cells in complete media
[11] = NCI-H292 cells, FDA drug library screen, cholesterol-free media with simvastatin 0.04 μM
[12] = NCI-H292 cells, FDA drug library screen, complete media
[13] = NCI-H292 cells, drug in cholesterol-free media with simvastatin 0.04 μM
[14] = NCI-H292 cells, drug in complete media
[15] = complete media vs cholesterol-free media + simvastatin (0.04 μM), >0 enhanced anti-cancer activity, about 0 neutral, <0 antagonist
[16] = Complete minus Cholesterol-free, greater than 0 enhanced anti-cancer activity, about 0 neutral, below 0 antagonist
[17] = NCI-H292 cells, FDA drug library screen, cholesterol-free media without statin
[18] = NCI-H292 cells, cholesterol-free media with simvastatin 0.04 μM, FDA drug library screen (TABLE 2)
[19] = NCI-H292 cells, complete media, FDA drug library screen (TABLE 2)
[20] = complete media minus cholesterol-free media + simvastatin (0.04 μM), >0 enhanced anti-cancer activity, about 0 neutral, <0 antagonist
[21] = NCI-H292 cells, cholesterol-free media without statin, FDA drug library screen
[22] = NCI-H292 cells, complete media, FDA drug library screen
[23] = complete vs cholesterol-free media, >0 enhanced anti-cancer activity, about 0 neutral, <0 antagonist
[24] = Complete minus Cholesterol-free, >0 enhanced anti-cancer activity, about 0 neutral, <0 antagonist
[25] = NCI-H292 cells, FDA library drug in cholesterol-free media with simvastatin 0.04 μM
[26] = NCI-H292 cells, FDA library drug in complete media

CCCCOc1ccc(C(=O)CCN2CCCCC2)cc1 [Dyclonine (hydrochloride)]
Cholesterol-free [1, 3]: 1.119 | Complete ([1]; NCI-H292 cells, complete media): 0.7824 | Difference [1, 4]: −0.34 | Cholesterol-free media + simvastatin (0.04 μM) [2, 5]: 0.8623 | Complete Media [2, 6]: 0.9661 | Difference [2, 7]: 0.10

CC(=O)[C@H]1CC[C@H]2[C@@H]3C=CC4=CC(=O)CC[C@@]4(C)[C@@H]3CC[C@]12C [Dydrogesterone]
Difference [1, 8]: −0.68 | Cholesterol-free [1, 9]: 1.745 | Complete [1, 10]: 1.064 | Cholesterol-free media + simvastatin (0.04 μM) [2, 5]: 1.183 | Complete Media [2, 6]: 1.295 | Difference [2, 7]: 0.11

CC[C@H](C)C(=O)N1CCC(NC(=O)Nc2ccc(OC(F)(F)F)c(F)c2)CC1 [EC5026]
Cholesterol-free [1, 3]: 1.148 | Complete ([1]; NCI-H292 cells, complete media): 0.7425 | Difference ([1]; complete vs cholesterol-free media, […]): −0.41 | Cholesterol-free media + simvastatin (0.04 μM) [2, 11]: 1.241 | Complete Media [2, 12]: 1.143 | Difference ([2]; complete media vs cholesterol-free media + simvastatin (0.04 μM), […]): −0.10

CC(C)(C)c1ccc(C(=O)CCCN2CCC(OC(c3ccccc3)c3ccccc3)CC2)cc1 [Ebastine]
Difference [1, 8]: −0.60 | Cholesterol-free [1, 9]: 1.238 | Complete [1, 10]: 0.6382 | Cholesterol-free media + simvastatin (0.04 μM) [2, 11]: 0.2638 | Complete Media [2, 12]: 1.066 | Difference [2, 7]: 0.80

CC(C)c1cc2c(cc1S(=O)(=O)O)[C@@]1(C)CCC[C@@](C)(C(=O)O)[C@@H]1CC2 [Ecabet (sodium)]
Cholesterol-free [1, 3]: 1.17 | Complete ([1]; NCI-H292 cells, complete media): 0.8018 | Difference [1, 4]: −0.37 | Cholesterol-free media + simvastatin (0.04 μM) [2, 13]: 1.124 | Complete Media [2, 14]: 0.9102 | Difference [2, 15]: −0.21

CC1=NN(c2ccccc2)C(=O)C1 [Edaravone]
Difference [1, 16]: −0.18 | Cholesterol-free [1, 17]: 1.236 | Complete [1, 12]: 1.052 | Cholesterol-free media + simvastatin (0.04 μM) [2, 18]: 1.019 | Complete Media [2, 19]: 1.02 | Difference [2, 20]: 0.00

CN1CCc2nc(C(=O)N[C@@H]3C[C@@H](C(=O)N(C)C)CC[C@@H]3NC(=O)C(=O)Nc3ccc(Cl)cn3)sc2C1 [Edoxaban]
Cholesterol-free [1, 21]: 1.603 | Complete [1, 22]: 1.759 | Difference [1, 23]: 0.16 | Cholesterol-free media + simvastatin (0.04 μM) [2, 13]: 1.032 | Complete Media [2, 14]: 0.8097 | Difference [2, 15]: −0.22

CC[N+](C)(C)c1cccc(O)c1.[Cl-] [Edrophonium (chloride)]
Difference ([1]; Complete minus Cholesterol-free, […]): −0.15 | Cholesterol-free [1, 17]: 1.134 | Complete [1, 12]: 0.9821 | Cholesterol-free media + simvastatin (0.04 μM) ([2]; NCI-H292 cells, cholesterol-free media with simvastatin 0.04 μM, […]): 1.155 | Complete Media ([2]; NCI-H292 cells, complete media, […]): 1.199 | Difference ([2]; complete media minus cholesterol-free media + simvastatin, […]): 0.04

O=C1Nc2ccc(Cl)cc2[C@@](C#CC2CC2)(C(F)(F)F)O1 [Efavirenz]
Cholesterol-free [1, 3]: 1.108 | Complete ([1]; NCI-H292 cells, complete media): 0.7866 | Difference [1, 4]: −0.32 | Cholesterol-free media + simvastatin (0.04 μM) [2, 5]: 1.215 | Complete Media [2, 6]: 1.301 | Difference [2, 7]: 0.09

C=C1CCN([C@H](C)[C@](O)(Cn2cncn2)c2ccc(F)cc2F)CC1 [Efinaconazole]
Cholesterol-free [1, 3]: 1.307 | Complete ([1]; NCI-H292 cells, complete media): 0.8534 | Difference [1, 4]: −0.45 | Cholesterol-free media + simvastatin (0.04 μM) [2, 11]: 0.5953 | Complete Media [2, 12]: 1.082 | Difference [2, 7]: 0.49

NCCCC(N)(C(=O)O)C(F)F (centres unmarked) [Eflornithine (hydrochloride hydrate)]
Difference [1, 24]: −0.22 | Cholesterol-free [1, 3]: 0.965 | Complete ([1]; NCI-H292 cells, complete media): 0.7419 | Cholesterol-free media + simvastatin (0.04 μM) [2, 13]: 1.426 | Complete Media [2, 14]: 1.224 | Difference [2, 15]: −0.20

CCOC(=O)COc1ccc2c(=O)cc(-c3ccccc3)oc2c1 [Efloxate]
Cholesterol-free [1, 3]: 1.349 | Complete ([1]; NCI-H292 cells, complete media): 0.929 | Difference [1, 4]: −0.42 | Cholesterol-free media + simvastatin (0.04 μM) [2, 11]: 1.124 | Complete Media [2, 12]: 0.9754 | Difference [2, 15]: −0.15

CC/C=C\C/C=C\C/C=C\C/C=C\C/C=C\CCCC(=O)O [Eicosapentaenoic Acid]
Difference [1, 16]: −0.10 | Cholesterol-free [1, 17]: 1.072 | Complete [1, 12]: 0.969 | Cholesterol-free media + simvastatin (0.04 μM) [2, 11]: 1.13 | Complete Media [2, 12]: 1.471 | Difference [2, 7]: 0.34

COc1cccc(-c2c(C)n(Cc3c(F)cccc3C(F)(F)F)c(=O)n(C[C@H](NCCCC(=O)O)c3ccccc3)c2=O)c1F [Elagolix sodium]
Difference [1, 8]: −0.93 | Cholesterol-free [1, 9]: 1.728 | Complete [1, 10]: 0.7978 | Cholesterol-free media + simvastatin (0.04 μM) [2, 11]: 1.413 | Complete Media [2, 12]: 1.627 | Difference [2, 7]: 0.21

COC(=O)N[C@H](C(=O)N1CCC[C@H]1c1nc(-c2ccc3c(c2)O[C@@H](c2ccccc2)n2c-3cc3cc(-c4c[nH]c([C@@H]5CCCN5C(=O)[C@@H](NC(=O)OC)C(C)C)n4)ccc32)c[nH]1)C(C)C [Elbasvir]
Difference [1, 8]: −0.70 | Cholesterol-free [1, 9]: 1.334 | Complete [1, 10]: 0.6346 | Cholesterol-free media + simvastatin (0.04 μM) [2, 18]: 0.9746 | Complete Media [2, 19]: 0.9378 | Difference [2, 20]: −0.04

CN1CCC[C@@H]1Cc1c[nH]c2ccc(CCS(=O)(=O)c3ccccc3)cc12 [Eletriptan (hydrobromide)]
Cholesterol-free [1, 3]: 1.406 | Complete ([1]; NCI-H292 cells, complete media): 1.08 | Difference [1, 4]: −0.33 | Cholesterol-free media + simvastatin (0.04 μM) [2, 25]: 1.33 | Complete Media [2, 26]: 0.9128 | Difference [2, 15]: −0.42

CCCCCCCC(=O)N[C@H](CN1CCCC1)[C@H](O)c1ccc2c(c1)OCCO2 [Eliglustat]
Difference [1, 24]: −0.30 | Cholesterol-free [1, 3]: 1.155 | Complete ([1]; NCI-H292 cells, complete media): 0.8552 | Cholesterol-free media + simvastatin (0.04 μM) [2, 25]: 1.086 | Complete Media [2, 26]: 0.6384 | Difference [2, 15]: −0.45

CC1=NN(c2ccc(C)c(C)c2)C(=O)/C1=N\Nc1cccc(-c2cccc(C(=O)O)c2)c1O [Eltrombopag (Olamine)]
Difference [1, 8]: −0.96 | Cholesterol-free [1, 9]: 1.745 | Complete [1, 10]: 0.7856 | Cholesterol-free media + simvastatin (0.04 μM) [2, 18]: 1.098 | Complete Media [2, 19]: 1.058 | Difference [2, 20]: −0.04

CC1=NN(c2ccc(C)c(C)c2)C(=O)/C1=N\Nc1cccc(-c2cccc(C(=O)O)c2)c1O [Eltrombopag]
Difference [1, 24]: −0.30 | Cholesterol-free [1, 3]: 1.47 | Cholesterol-free media + simvastatin (0.04 μM) [2, 11]: 1.011 | Complete Media [2, 12]: 0.868 | Difference [2, 15]: −0.14

COc1cc2c(cc1Cc1cccc(Cl)c1F)c(=O)c(C(=O)O)cn2[C@H](CO)C(C)C [Elvitegravir]
Difference [1, 8]: −0.83 | Cholesterol-free [1, 9]: 1.777 | Complete [1, 10]: 0.9448 | Cholesterol-free media + simvastatin (0.04 μM) [2, 11]: 1.032 | Complete Media [2, 12]: 1.435 | Difference [2, 7]: 0.40

CCCCCCCCCCCC1=C(O)C(=O)C=C(O)C1=O [Embelin]
Difference [1, 8]: −0.48 | Cholesterol-free [1, 9]: 1.567 | Complete [1, 10]: 1.082 | Cholesterol-free media + simvastatin (0.04 μM) [2, 18]: 0.8998 | Complete Media [2, 19]: 0.8298 | Difference [2, 20]: −0.07

CCOCCn1c(N2CCCN(C)CC2)nc2ccccc21 [Emedastine]
Difference [1, 24]: −0.27 | Cholesterol-free [1, 3]: 0.9896 | Complete ([1]; NCI-H292 cells, complete media): 0.7182 | Cholesterol-free media + simvastatin (0.04 μM) [2, 5]: 0.8891 | Complete Media [2, 6]: 0.9093 | Difference [2, 7]: 0.02

CC[C@H]1CN2CCc3cc(OC)c(OC)cc3[C@@H]2C[C@@H]1C[C@H]1NCCc2cc(OC)c(OC)cc21 [Emetine (dihydrochloride hydrate)]
Cholesterol-free [1]: 0.02305 | Complete [1]: 0.04288 | Difference [1]: 0.02 | Cholesterol-free media + simvastatin (0.04 μM) [2]: 0.05048 | Complete Media [2]: 0.03214 | Difference [2]: −0.02

OC[C@H]1O[C@@H](c2ccc(Cl)c(Cc3ccc(O[C@H]4CCOC4)cc3)c2)[C@H](O)[C@@H](O)[C@@H]1O [Empagliflozin]
Cholesterol-free [1, 21]: 0.7937 | Complete [1, 22]: 1.112 | Difference [1, 23]: 0.32 | Cholesterol-free media + simvastatin (0.04 μM) [2, 11]: 0.9749 | Complete Media [2, 12]: 0.8261 | Difference [2, 15]: −0.15

Nc1nc(=O)n([C@@H]2CS[C@H](CO)O2)cc1F [Emtricitabine]
Cholesterol-free [1, 21]: 0.9457 | Complete [1, 22]: 1.235 | Difference [1, 23]: 0.29 | Cholesterol-free media + simvastatin (0.04 μM) [2, 5]: 1.347 | Complete Media [2, 6]: 1.442 | Difference [2, 7]: 0.09

C[C@H](N[C@@H](CCc1ccccc1)C(=O)O)C(=O)N1CCC[C@H]1C(=O)O.O.O [Enalaprilat (dihydrate)]
Difference [1, 8]: −0.58 | Cholesterol-free [1, 9]: 1.525 | Complete [1, 10]: 0.949 | Cholesterol-free media + simvastatin (0.04 μM) [2, 25]: 1.635 | Complete Media [2, 26]: 1.051 | Difference [2, 15]: −0.58

CC(C)(O)CNc1nc(Nc2ccnc(C(F)(F)F)c2)nc(-c2cccc(C(F)(F)F)n2)n1 [Enasidenib]
Difference [1, 24]: −0.30 | Cholesterol-free [1, 3]: 1.312 | Complete ([1]; NCI-H292 cells, complete media): 1.013 | Cholesterol-free media + simvastatin (0.04 μM) [2, 5]: 0.8158 | Complete Media [2, 6]: 0.8552 | Difference [2, 7]: 0.04
